Values after ≈ are worked out from the molar mass of the structure shown.
Assays:
Format in all cases: cell-based
[1] = test system: Mannheimia haemolytica MH 6357 (M7/2, reference strain, cattle infection strain); assay: MIC, broth-microdilution (CLSI VET01-A4), strain MH 6357; details: Mannheimia haemolytica strain MH 6357, broth-microdilution; unit assumed
Procedure, shortened: (§1)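 The compound was titrated in twofold steps in microdilution trays. Absence of turbidity, checked without instruments, marked the MIC at the lowest such concentration.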

[2] = test system: Mannheimia haemolytica MH 6374 (ATCC 33396, reference strain); assay: MIC, broth-microdilution (CLSI VET01-A4), strain MH 6374; details: Mannheimia haemolytica strain MH 6374, broth-microdilution; unit assumed
Procedure, shortened: as §1

[3] = test system: Mannheimia haemolytica MH 10720 (154, BRD field isolate); assay: MIC, broth-microdilution (CLSI VET01-A4), strain MH 10720; details: Mannheimia haemolytica strain MH 10720, broth-microdilution; unit assumed
Procedure, shortened: as §1

[4] = test system: Mannheimia haemolytica MH 12587 (1071, BRD field isolate, macrolide-resistance: erm+, E+); assay: MIC, broth-microdilution (CLSI VET01-A4), strain MH 12587; details: Mannheimia haemolytica strain MH 12587, broth-microdilution; unit assumed
Procedure, shortened: as §1

[5] = test system: Mannheimia haemolytica MH 13065 (XB0446-6003.9, BRD field isolate); assay: MIC, broth-microdilution (CLSI VET01-A4), strain MH 13065; details: Mannheimia haemolytica strain MH 13065, broth-microdilution; unit assumed
Procedure, shortened: as §1

[6] = test system: Mannheimia haemolytica MH 13093 (XB0472-6014.1, BRD field isolate); assay: MIC, broth-microdilution (CLSI VET01-A4), strain MH 13093; details: Mannheimia haemolytica strain MH 13093, broth-microdilution; unit assumed
Procedure, shortened: as §1

[7] = test system: Pasteurella multocida PM 6267 (P 2225 (L386), reference strain, mouse infection strain); assay: MIC, broth-microdilution (CLSI VET01-A4), strain PM 6267; details: Pasteurella multocida strain PM 6267, broth-microdilution; unit assumed
Procedure, shortened: as §1

[8] = test system: Pasteurella multocida PM 6391 (ATCC 43137, reference strain); assay: MIC, broth-microdilution (CLSI VET01-A4), strain PM 6391; details: Pasteurella multocida strain PM 6391, broth-microdilution; unit assumed
Procedure, shortened: as §1

[9] = test system: Pasteurella multocida PM 10775 (080130003051, BRD field isolate); assay: MIC, broth-microdilution (CLSI VET01-A4), strain PM 10775; details: Pasteurella multocida strain PM 10775, broth-microdilution; unit assumed
Procedure, shortened: as §1

[10] = test system: Pasteurella multocida PM 12080 (IV102277-0093, BRD field isolate); assay: MIC, broth-microdilution (CLSI VET01-A4), strain PM 12080; details: Pasteurella multocida strain PM 12080, broth-microdilution; unit assumed
Procedure, shortened: as §1

| SMILES | MIC MH 6357 [1] | MIC MH 6374 [2] | MIC MH 10720 [3] | MIC MH 12587 [4] | MIC MH 13065 [5] | MIC MH 13093 [6] | MIC PM 6267 [7] | MIC PM 6391 [8] | MIC PM 10775 [9] | MIC PM 12080 [10] |
| --- | --- | --- | --- | --- | --- | --- | --- | --- | --- | --- |
| CC(C)([C@H](NC(=O)c1ccc(C#Cc2ccc(CN3CCOCC3)s2)cc1)C(=O)NO)S(C)(=O)=O [Compound 314] | 0.4 µg/mL (≈ 0.77 µM) | 1.6 µg/mL (≈ 3.08 µM) | ≤ 0.1 µg/mL | 0.8 µg/mL (≈ 1.54 µM) | 0.4 µg/mL (≈ 0.77 µM) | 0.8 µg/mL (≈ 1.54 µM) | 0.4 µg/mL (≈ 0.77 µM) | ≤ 0.1 µg/mL | ≤ 0.1 µg/mL | ≤ 0.1 µg/mL |
| CC(C)(O)[C@H](NC(=O)c1ccc(C#Cc2ccc(CN3CCOCC3)s2)cc1)C(=O)NO [Compound 293] | 0.4 µg/mL (≈ 0.874 µM) | 0.8 µg/mL (≈ 1.75 µM) | ≤ 0.1 µg/mL | 0.8 µg/mL (≈ 1.75 µM) | 0.4 µg/mL (≈ 0.874 µM) | 0.8 µg/mL (≈ 1.75 µM) | 1.6 µg/mL (≈ 3.5 µM) | 0.2 µg/mL (≈ 0.437 µM) | ≤ 0.1 µg/mL | ≤ 0.1 µg/mL |
| CC[C@H](C)[C@H](NC(=O)c1ccc(C#Cc2ccc(CNCc3ccnc(Cl)c3)cc2)cc1)C(=O)NO [Compound 190] | 1.6 µg/mL (≈ 3.17 µM) | 3.1 µg/mL (≈ 6.14 µM) | 0.4 µg/mL (≈ 0.792 µM) | 3.1 µg/mL (≈ 6.14 µM) | 1.6 µg/mL (≈ 3.17 µM) | 1.6 µg/mL (≈ 3.17 µM) | ≤ 0.1 µg/mL | 0.4 µg/mL (≈ 0.792 µM) | ≤ 0.1 µg/mL | 0.2 µg/mL (≈ 0.396 µM) |
| CC(C)([C@H](NC(=O)c1ccc(C#Cc2ccc(CNCC#N)cc2)cc1)C(=O)NO)S(C)(=O)=O [Compound 266] | 0.8 µg/mL (≈ 1.66 µM) | 0.4 µg/mL (≈ 0.829 µM) | ≤ 0.1 µg/mL | 1.6 µg/mL (≈ 3.32 µM) | 0.8 µg/mL (≈ 1.66 µM) | 0.8 µg/mL (≈ 1.66 µM) | ≤ 0.1 µg/mL | ≤ 0.1 µg/mL | ≤ 0.1 µg/mL | ≤ 0.1 µg/mL |
| COCCCNCc1ccc(C#Cc2ccc(C(=O)N[C@H](C(=O)NO)C(C)C)cc2)cc1 [Compound 205] | 1.6 µg/mL (≈ 3.66 µM) | 3.1 µg/mL (≈ 7.09 µM) | 0.8 µg/mL (≈ 1.83 µM) | 6.3 µg/mL (≈ 14.4 µM) | 1.6 µg/mL (≈ 3.66 µM) | 3.1 µg/mL (≈ 7.09 µM) | 0.2 µg/mL (≈ 0.457 µM) | 0.4 µg/mL (≈ 0.914 µM) | ≤ 0.1 µg/mL | 0.4 µg/mL (≈ 0.914 µM) |
| O=C(N[C@@H](CO)C(=O)NO)c1ccc(C#Cc2ccc(CNCc3cccnc3)cc2)cc1 [Compound 157] | 1.6 µg/mL (≈ 3.6 µM) | 1.6 µg/mL (≈ 3.6 µM) | 0.8 µg/mL (≈ 1.8 µM) | 6.3 µg/mL (≈ 14.2 µM) | 3.1 µg/mL (≈ 6.97 µM) | 6.3 µg/mL (≈ 14.2 µM) | 0.4 µg/mL (≈ 0.9 µM) | 0.8 µg/mL (≈ 1.8 µM) | ≤ 0.1 µg/mL | 0.8 µg/mL (≈ 1.8 µM) |
| COc1ccc(CNCc2ccc(C#Cc3ccc(C(=O)N[C@H](C(=O)NO)C(C)(C)S(C)(=O)=O)cc3)cn2)cc1 [Compound 352] | 0.8 µg/mL (≈ 1.42 µM) | 0.8 µg/mL (≈ 1.42 µM) | 0.2 µg/mL (≈ 0.354 µM) | 3.1 µg/mL (≈ 5.49 µM) | 1.6 µg/mL (≈ 2.83 µM) | 1.6 µg/mL (≈ 2.83 µM) | 0.8 µg/mL (≈ 1.42 µM) | 0.4 µg/mL (≈ 0.708 µM) | ≤ 0.1 µg/mL | 0.2 µg/mL (≈ 0.354 µM) |
| CC(C)(O)[C@H](NC(=O)c1ccc(C#Cc2ccc(CNC3CC3)nc2)cc1)C(=O)NO [Compound 324] | 0.4 µg/mL (≈ 0.947 µM) | 0.8 µg/mL (≈ 1.89 µM) | ≤ 0.1 µg/mL | 1.6 µg/mL (≈ 3.79 µM) | 0.8 µg/mL (≈ 1.89 µM) | 1.6 µg/mL (≈ 3.79 µM) | 0.4 µg/mL (≈ 0.947 µM) | 0.4 µg/mL (≈ 0.947 µM) | ≤ 0.1 µg/mL | 0.2 µg/mL (≈ 0.473 µM) |
| C=CCNCc1ccc(C#Cc2ccc(C(=O)N[C@H](C(=O)NO)C(C)(C)O)cc2)cn1 [Compound 361] | 3.1 µg/mL (≈ 7.34 µM) | 0.8 µg/mL (≈ 1.89 µM) | 0.4 µg/mL (≈ 0.947 µM) | 3.1 µg/mL (≈ 7.34 µM) | 1.6 µg/mL (≈ 3.79 µM) | 3.1 µg/mL (≈ 7.34 µM) | 0.4 µg/mL (≈ 0.947 µM) | 0.4 µg/mL (≈ 0.947 µM) | ≤ 0.1 µg/mL | 0.2 µg/mL (≈ 0.473 µM) |
| Cc1ccc(CNCc2ccc(C#Cc3ccc(C(=O)N[C@H](C(=O)NO)C(C)C)cc3)cc2)cc1 [Compound 172] | 0.4 µg/mL (≈ 0.852 µM) | 0.8 µg/mL (≈ 1.7 µM) | 0.4 µg/mL (≈ 0.852 µM) | 1.6 µg/mL (≈ 3.41 µM) | 0.8 µg/mL (≈ 1.7 µM) | 0.8 µg/mL (≈ 1.7 µM) | 0.2 µg/mL (≈ 0.426 µM) | 0.4 µg/mL (≈ 0.852 µM) | ≤ 0.1 µg/mL | 0.4 µg/mL (≈ 0.852 µM) |

— patent publication US11034650B2, “Compounds useful for treating a Mannheimia haemolytica or Histophilus somni infection” (Intervet Inc., priority 2016, dated 2021)
